Measured values from patent US20230122967A1, “NOVEL COMPOUNDS AS INHIBITORS OF PCSK9” (SHENGKE PHARMACEUTICALS (JIANGSU) LTD., priority 2020, published 2023).

How the values were obtained:
Assay type in all cases: cell-based
PCSK9 = PCSK9 ELISA on HepG2 culture medium; conditions: HepG2 cells, 24 hr
Experimental: (§1) HepG2 cells (ATCC, Cat.: HB-8065) were maintained in Growth medium-Eagle's Minimum Essential Medium (Corning, 10-010-CVR), 10% FBS (Gibco, 10099-141), Penicillin (100 units/mL), Streptomycin ([…]). HepG2 cells were incubated at 37° C., 5% CO2. HepG2 cells were plated in flat bottom 96-well plates (Corning, 3599) at 40,000 cells/well in 100 μL of growth media. After an overnight incubation, the culture media were changed to serum-free OptiMEM media (Gibco, 31985-062), 90 μL/well. Vehicle, PF-06446846 hydrochloride, berberine, or test compound was added to the culture media, 10 μL/well. After 24 hr medium was harvested, and 10 μL of the medium were used for the PCSK9 ELISA (R&D Systems, SPC900).

HepG2 cells = assay: Cell viability assay (HepG2 Survival assay, CellTiter-Glo); conditions: 24 hr, cellular ATP levels
Experimental: as §1, with “black clear” for “flat”, “3063)” for “3599)”, “cellular ATP levels” for “medium was harvested, and 10 μL of the medium”, “measured using CellTiter-Glo® 2.0 Assay (Promega, G9242).” for “used for the PCSK9 ELISA (R&D Systems, SPC900).”

PCSK9 mRNA = assay: RT-Q-PCR analysis of PCSK9 mRNA in HepG2 cells; conditions: Homo sapiens, 24 h, normalized to GAPDH, read-out: HepG2 Q-PCR PCSK9 mRNA level decrease (10 μM)
Experimental: HepG2 cells (ATCC, Cat.: HB-8065) were maintained in Growth medium-Eagle's Minimum Essential Medium (Corning, 10-010-CVR), 10% FBS (Gibco, 10099-141), Penicillin (100 units/mL), Streptomycin ([…]). HepG2 cells were incubated at 37° C., 5% CO2.
Cells were cultured in growth medium as described above and treated with the vehicle, Berberine or test compound for 24 h. The RNA was extracted using the Total RNA mini Kit (Tiangen, Beijing, China) according to the manufacturer's instructions. Reverse transcription was carried out using the High-Capacity cDNA reverse transcription kit (Thermo Fisher Scientific). Quantitative real-time PCR was performed using a reaction mixture containing cDNA, specific primers [PCSK9, 5′-[…]-3′ (forward) and 5′-[…]-3′ (reverse); GAPDH, 5′-[…]-3′ (forward) and 5′-[…]-3′ (reverse)] and Maxima SYBR Green/ROX qPCR Master Mix (Thermo Fisher Scientific). PCR amplification was carried out in a Real-Time PCR System. The real-time PCR conditions were 37° C. 10 min; 95° C. 10 min; 95° C. 15 s, 60° C. 30 s, 72° C. 30 s, 40 cycle. The amount of % RNA was normalized to the GAPDH level in the same samples.

Structure (SMILES)	HepG2 PCSK9 ELISA (10 μM) % inhibition (PCSK9) [%]	HepG2 Survival assay (10 μM) (HepG2 cells) [%]	inhibition at 10 µM (PCSK9 mRNA) [%]
O=C(CN(CC(=O)Nc1ccc(Oc2ccc(C(F)(F)F)cc2)cc1)C(=O)c1ccc(C(F)(F)F)[nH]1)Nc1ccccc1 [Compound 201-263]	84	88	–
CC(C)c1ccc(Oc2ccc(NC(=O)CN(CC(=O)NCc3ccccc3)C(=O)c3ccc(C(F)(F)F)[nH]3)cc2)cc1 [Compound 201-249]	85	97	–
CN(Cc1ccccc1F)C(=O)CN(CC(=O)Nc1ccc(Oc2ccc(F)cc2)cc1)C(=O)c1ccc(C(F)(F)F)o1 [Compound 201-103]	86	100	85
O=C(CN(CC(=O)Nc1ccc(Oc2ccccc2)cc1)C(=O)c1cc2ccccc2[nH]1)NCc1ccccc1F [Compound 201-43]	60	100	77
O=C(CN(CC(=O)NC1Cc2ccccc2C1)C(=O)c1cc2ccccc2[nH]1)Nc1ccc(Oc2ccccc2)cc1 [Compound 201-11]	38	100	79.3
CN(C(=O)CN(CC(=O)NC1Cc2ccccc2C1)C(=O)c1cc2cccc(F)c2[nH]1)c1ccc(Oc2ccc(F)cc2)cc1 [Compound 201-14]	41	93	89.5
CC(C)c1ccc(Oc2ccc(NC(=O)CN(CC(=O)NC3CCCC3)C(=O)c3ccc(C(F)(F)F)[nH]3)cc2)cc1 [Compound 201-235]	73	101	72
O=C(CN(CC(=O)Nc1ccc(Oc2ccc(F)cc2)cc1)C(=O)c1cc2ccccc2[nH]1)NCc1ccccc1F [Compound 201-41]	72	100	75
O=C(CN(CC(=O)NC1Cc2ccccc2C1)C(=O)c1cc2cccc(F)c2[nH]1)Nc1ccc(Oc2ccc(F)cc2)cc1 [Compound 201-13]	64	97	93.3
CN(Cc1ccccc1)C(=O)CN(CC(=O)N(C)c1ccc(Oc2ccc(F)cc2)cc1)C(=O)c1cc2c(F)cccc2[nH]1 [Compound 201-50]	47	100	77
O=C(CN(CC(=O)Nc1ccc(Oc2ccc(F)cc2)cc1)C(=O)c1cc2cc(F)ccc2[nH]1)NCc1ccccc1F [Compound 201-37]	50	100	63
O=C(CN(CC(=O)Nc1ccc(Oc2ccccc2)cc1)C(=O)c1cc2cccc(F)c2[nH]1)Nc1ccccc1 [Compound 201-258]	69	97	–
O=C(CN(CC(=O)Nc1ccc(Oc2ccc(C(F)(F)F)cc2)cc1)C(=O)c1cc2cccc(F)c2[nH]1)Nc1ccccc1 [Compound 201-255]	87	101	72
CN(Cc1ccccc1)C(=O)CN(CC(=O)Nc1ccc(Oc2ccccc2)cc1)C(=O)c1cc2c(F)cccc2[nH]1 [Compound 201-51]	55	93	75
CN(C(=O)CN(CC(=O)NCc1ccccc1F)C(=O)c1cc2cccc(F)c2[nH]1)c1ccc(Oc2ccc(F)cc2)cc1 [Compound 201-46]	33	100	46
CN(Cc1ccccc1)C(=O)CN(CC(=O)N(C)c1ccc(Oc2ccc(F)cc2)cc1)C(=O)c1cc2cc(F)ccc2[nH]1 [Compound 201-54]	52	100	61
